Laboratory results: patent US4927809A, “Oligopeptidyl nitrile derivatives, agents containing them and their use” (Behringwerke Aktiengesellschaft, priority 1986, dated 1990)

How the values were obtained:
alpha human thrombin [1] = target: T1, alpha human thrombin (Homo sapiens, UniProt P00734); test: Determination of the thrombin time (concentration doubling the thrombin time) in standard human plasma; assay type: biochemical; details: pH 7.6, 37° C., alpha human thrombin 3.0 IU/ml
T1 construct: alpha human thrombin
Procedure: The activity of the substances prepared as in Examples 1, 2 or 3 was ascertained by determination of the thrombin time. This entailed the concentration (in μmol/l) which doubled the thrombin time being ascertained.
50 μl of inhibitor solution of various concentrations, 50 μl of standard human plasma and 100 μl of diethylbarbituric acid/sodium acetate buffer, pH 7.6, were incubated at 37° C. for 45 seconds and 100 μl of alpha human thrombin (3.0 IU/ml) were added. The tests were carried out on a Schnitger & Gross apparatus for determination of the thrombin time.

mice = details: mouse, in vivo, iv
Procedure: The toxicity of H-D-Phe-Pro-Arg-CN × 2HCOOH […] in an animal model. The test substance was administered i.v. to mice. Clinically detectable pathological findings were found at and above a dose of 50 mg/kg. The dose for a therapeutic effect ought to be about 1-4 mg/kg.

alpha human thrombin [2] = target: T1, alpha human thrombin; test: Inhibition constant (Ki) against alpha human thrombin; assay type: biochemical

| SMILES | Doubling of the thrombin time at concentration (final conc.) (alpha human thrombin [1]) [µmol/L] | Dose at and above which clinically detectable pathological findings were found (mice) [mg/kg] | Ki (alpha human thrombin [2]) [nM] |
| --- | --- | --- | --- |
| N#CC(CCCNC(=N)N)NC(=O)[C@@H]1CCCN1C(=O)[C@H](N)Cc1ccccc1.O=C(O)C(F)(F)F.O=C(O)C(F)(F)F (stereo partly drawn) [Example 3, H-D-Phenylalanyl-L-prolyl-L-(1-amino-4-guanidino)valeronitrile ditrifluoroacetate] | 1.1 |  |  |
| CC(C)(C)OC(=O)N[C@H](Cc1ccccc1)C(=O)N1CCC[C@H]1C(=O)NC(C#N)CCCNC(=N)N (stereo partly drawn) [Example 1, N(alpha)-Boc-D-Phenylalanyl-L-prolyl-L-(1-amino-4-guanidino)valeronitrile] | 3.66 |  |  |
| N#C[C@H](CCCNC(=N)N)NC(=O)[C@@H]1CCCN1C(=O)[C@H](N)Cc1ccccc1.O=CO.O=CO [H-D-Phe-Pro-Arg-CN × 2HCOOH] |  | ≥ 50 | 600 |
| N#CC(CCCNC(=N)N)NC(=O)[C@@H]1CCCN1C(=O)[C@@H](Cc1ccccc1)NC(=O)OCC1c2ccccc2-c2ccccc21 (stereo partly drawn) [Example 2, N(alpha)-Fmoc-D-Phenylalanyl-L-prolyl-L-(1-amino-4-guanidino)valeronitrile] | 3.66 |  |  |
